Measured values taken from patent publication US20110039721A1, “METHOD FOR PREDICTION ABOUT CARCINOGENICITY OF SUBSTANCE IN RODENT” (Chemicals Evaluation and Research Institute, priority 2007, published 2011).

Assays:
[1] = test system: liver; conditions: in vivo; cited from earlier work
[2] = test system: mRNA expressed from the genes (A) to (D) in rat liver; test: Behavior of genes (mRNA expression level, oligo-DNA microarray) in rat liver after 28-day oral administration; assay type: in vivo; conditions: rat liver, oral once daily 28 days
Procedure, shortened: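 Liver mRNA measured by oligo-DNA microarray after 28 days of once-daily oral gavage in 5-week-old male F344 rats (n=4 per group), with vehicle controls given equal solvent volume. Significance threshold: 1.5-fold up or down versus control, with changes opposite in direction to other carcinogens counted as not significant.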

[3] = test system: rodent; conditions: in vivo; cited from earlier work
[4] = (C), Unigene Rn.120914, defined direction +

For `CC(=N)S` [TS030, Thioacetoamide], the Liver carcinogenicity [1] is given as “Cr+”, the “Behavior of gene caused by administration of chemical substance, Gene No. 4846” value ([2]; (A), Unigene Rn.144554, defined direction +) is given as “+” and the “Behavior of gene caused by administration of chemical substance, Gene No. 4218” value ([2]; (A), Unigene Rn.167075, defined direction +, significant = 1.5 times or more or 1/1.5 or less of control) is given as “+”. The “Behavior of gene caused by administration of chemical substance, Gene No. 2026” value ([2]; (A), Unigene Rn.167075, defined direction −) was “+”, the “Behavior of gene caused by administration of chemical substance, Gene No. 6182” value ([2]; (A), Unigene Rn.5834, defined direction +) was “+” and the “Behavior of gene caused by administration of chemical substance, Gene No. 5600” value ([2]; (A), Unigene Rn.9836, defined direction +) was “+”. For the same compound, the “Behavior of gene caused by administration of chemical substance, Gene No. 1494” value ([2]; (B), Unigene Rn.1430, defined direction −) was “+”, the “Behavior of gene caused by administration of chemical substance, Gene No. 2045” value ([2]; (B), Unigene Rn.19329, defined direction +) was “−” and the “Behavior of gene caused by administration of chemical substance, Gene No. 2203” value ([2]; (B), Unigene Rn.21240, defined direction +) was “−”. For the same compound, the “Behavior of gene caused by administration of chemical substance, Gene No. 533” value ([2]; (C), Unigene Rn.106184, defined direction +) was “+”, the “Behavior of gene caused by administration of chemical substance, Gene No. 725” value ([2]; (C), Unigene Rn.108075, defined direction −) was “+” and the “Behavior of gene caused by administration of chemical substance, Gene No. 1163” value ([2]; (C), Unigene Rn.11766, defined direction +) was “−”. For the same compound, the “Behavior of gene caused by administration of chemical substance, Gene No. 4973” value ([2]; (C), Unigene Rn.118529, defined direction −) was “+”, the “Behavior of gene caused by administration of chemical substance, Gene No. 4095” value ([2]; (C), Unigene Rn.119024, defined direction −) was “+” and the “Behavior of gene caused by administration of chemical substance, Gene No. 1334” value [2, 4] was “−”. For the same compound, the “Behavior of gene caused by administration of chemical substance, Gene No. 6620” value [2, 4] was “−”, the “Behavior of gene caused by administration of chemical substance, Gene No. 6303” value ([2]; (C), Unigene Rn.123063, defined direction −) was “+” and the “Behavior of gene caused by administration of chemical substance, Gene No. 5878” value ([2]; (C), Unigene Rn.143213, defined direction −) was “−”. The “Behavior of gene caused by administration of chemical substance, Gene No. 1131” value ([2]; (C), Unigene Rn.144946, defined direction −) was “−”, the “Behavior of gene caused by administration of chemical substance, Gene No. 1562” value ([2]; (C), Unigene Rn.14744, defined direction −) was “+” and the “Behavior of gene caused by administration of chemical substance, Gene No. 1741” value ([2]; (C), Unigene Rn.1647, defined direction −) was “+”. The “Behavior of gene caused by administration of chemical substance, Gene No. 893” value ([2]; (C), Unigene Rn.164817, defined direction +) was “+”, the “Behavior of gene caused by administration of chemical substance, Gene No. 6026” value ([2]; (C), Unigene Rn.167685, defined direction −) was “−” and the “Behavior of gene caused by administration of chemical substance, Gene No. 154” value ([2]; (C), Unigene Rn.185941, defined direction −) was “+”. For the same compound, the “Behavior of gene caused by administration of chemical substance, Gene No. 1993” value ([2]; (C), Unigene Rn.18728, defined direction −) was “+”, the “Behavior of gene caused by administration of chemical substance, Gene No. 813” value ([2]; (C), Unigene Rn.201760, defined direction +) was “+” and the “Behavior of gene caused by administration of chemical substance, Gene No. 2494” value ([2]; (C), Unigene Rn.23969, defined direction +) was “+”. For the same compound, the “Behavior of gene caused by administration of chemical substance, Gene No. 2546” value ([2]; (C), Unigene Rn.24561, defined direction −) was “−”, the “Behavior of gene caused by administration of chemical substance, Gene No. 3776” value ([2]; (C), Unigene Rn.43232, defined direction −) was “+” and the “Behavior of gene caused by administration of chemical substance, Gene No. 3929” value ([2]; (C), Unigene Rn.4620, defined direction +) was “−”. The “Behavior of gene caused by administration of chemical substance, Gene No. 1119” value ([2]; (C), Unigene Rn.9757, defined direction +) was “−”, the “Behavior of gene caused by administration of chemical substance, Gene No. 6742” value ([2]; (C), Unigene Rn.9779, defined direction +) was “−” and the “Behavior of gene caused by administration of chemical substance, Gene No. 5634” value ([2]; (C), Unigene Rn.9862, defined direction −) was “−”. For the same compound, the “Behavior of gene caused by administration of chemical substance, Gene No. 5726” value ([2]; (D), Unigene Rn.9939, defined direction −) was “+” and the Carcinogenicity [3] was “C+”.
